Measured values published in patent EP4806435A1, “DIHYDROCHROMENE-DERIVATIVE-CONTAINING THERAPEUTIC AGENT FOR CANCER” (Sumitomo Pharma Co., Ltd., priority 2023, dated 2025).

Columns and labels:
[1] = test system: IDH1 R132H mutant U-87 cells; test: Cytotoxicity assay, sphere culture with LDL supplementation (ATP); format: cell-based, human; details: 1 µM; 7 days sphere culture; LDL 5 µg/mL
Protocol: U-87 cells were established with a tetracycline-inducible IDH1 R132H mutation expression system. The cells were cultured in the presence of doxycycline (1 µM), a tetracycline derivative, for 5 days to induce the IDH1 R132H mutation. After induction of the mutation, the cells were transferred to sphere culture medium (containing B-27 supplement, epidermal growth factor, cell proliferation factors, insulin, and low-density lipoprotein [LDL]), and cultured for 7 days under sphere-forming conditions after the addition of Compound 1 (1 µM). The LDL concentration in the medium was 5 µg/mL. After incubation, cellular ATP levels were quantified as an indicator of cell viability, and cell viability was calculated as the ratio relative to ATP levels under vehicle-only conditions. Using this approach, the cytotoxic effects of the present compound under LDL-supplemented conditions were compared between wild-type (doxycycline-) and mutant (doxycycline+) cells.

[2] = test system: luciferase-expressing U-87 cells; test: In vivo efficacy, combination with bevacizumab, orthotopic brain tumor (IVIS imaging); details: Compound 1 10 mg/kg twice daily (once daily from day 30) + bevacizumab 1 mg/kg twice weekly; brain tumors in immunodeficient mice
Protocol: Luciferase-expressing U-87 cells, in which the luminescent enzyme luciferase was forcibly expressed, were established (obtained from ATCC (American Type Culture Collection)). 1 x 10^6 of these cells were implanted into the brains of immunodeficient mice to establish brain tumors. On day 18 after tumor cell implantation, administration was initiated with Compound 1 at 10 mg/kg (twice daily) and bevacizumab at 1 mg/kg (twice weekly). On day 30, the dosing frequency of Compound 1 was reduced to once daily. The efficacy of each monotherapy and the combination therapy was evaluated by quantifying orthotopic tumor progression using an IVIS Imaging System and comparing the results.

[3] = target: T1, EBP (Homo sapiens, UniProt Q15125); test: Phase 1 clinical trial: pharmacodynamics, Lathosterol/Zymostenol (L/Z) ratio; format: in vivo; details: for decrease of mean L/Z ratio: Cycle 1 Day 2 (C1D2), as of April 2024
T1 construct: endogenous in cells; host or cells: Patients with recurrent malignant glioma (WHO grade III or IV), in vivo; sterol ratio assessed in serum
T1 sequence (Q15125 whole entry): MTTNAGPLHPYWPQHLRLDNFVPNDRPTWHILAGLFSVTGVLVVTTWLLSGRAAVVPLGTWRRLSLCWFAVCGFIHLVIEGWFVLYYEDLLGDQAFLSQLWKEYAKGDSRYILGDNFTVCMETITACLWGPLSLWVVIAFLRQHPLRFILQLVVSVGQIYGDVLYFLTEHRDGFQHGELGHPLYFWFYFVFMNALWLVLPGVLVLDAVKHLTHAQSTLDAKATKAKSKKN
Description: As of September 2023, pharmacodynamic assessments had clearly shown that Compound 1 inhibited the target, at least in serum. […] (Figure 5)

[4] = test system: B16 cells; test: In vivo efficacy, combination with ipilimumab, B16 tumors; parameters: species or system C57BL/6J mice; details: Compound 1 3 mg/kg or 10 mg/kg once daily + ipilimumab 5 mg/kg once weekly; B16, subcutaneous
Protocol: B16 cells (3 x 10^5) were subcutaneously implanted into C57BL/6J mice (n = 6) to establish tumors. On day 12 after implantation, administration was initiated with Compound 1 at 3 mg/kg or 10 mg/kg (once daily) and ipilimumab (an anti-CTLA-4 antibody) at 5 mg/kg (once weekly), and the efficacy of each monotherapy and the combination therapy was compared.
(§1) Tumor volume was calculated using the following formula based on the short and long diameters of the tumor measured with digital calipers (Mitutoyo). [formula]
(§2) The antitumor effect was evaluated by comparing the vehicle-treated control group with the test substance-treated group, and calculating T/C using the following formula. [formula]

[5] = test system: U-87 cells (IDH1 wild-type); test: Cytotoxicity, sphere culture with LDL, combination with ezetimibe (ATP); format: cell-based, human; details: 7 days, LDL 5 µg/mL
Protocol: U-87 cells were cultured for 7 days in sphere medium supplemented with LDL at a concentration of 5 µg/mL, with either ezetimibe (a cholesterol absorption inhibitor) added at 3.3, 10, or 30 µM, Compound 1 added at 1 µM, or a combination of both agents. Cell viability was calculated in the same manner as in Example 12, and the cytotoxic effects of each treatment were compared between single-agent and combination conditions.

[6] = test system: recurrent malignant glioma classified as WHO grade III or IV; test: Phase 1 clinical trial: preliminary antitumor activity (RANO criteria); format: in vivo, human
Protocol: Each treatment cycle was defined as 28 days, during which safety and treatment response were evaluated. Administration to each subject was continued until unacceptable toxicity occurred, consent was withdrawn, the subject was lost to follow-up, or discontinuation was determined by the investigator and/or the sponsor.

[7] = test system: MC38 cells; test: In vivo efficacy, combination with ipilimumab, MC38 tumors; parameters: species or system C57BL/6J mice; details: Compound 1 3 mg/kg or 30 mg/kg once daily + ipilimumab 5 mg/kg once weekly; MC38, subcutaneous
Protocol: MC38 cells (3 x 10^5) were subcutaneously implanted into C57BL/6J mice (n = 6) to establish tumors. On day 12 after implantation, administration was initiated with Compound 1 at 3 mg/kg or 30 mg/kg (once daily) and ipilimumab (an anti-CTLA-4 antibody) at 5 mg/kg (once weekly), and the efficacy of each monotherapy and the combination therapy was compared.
as §1, §2

In the case of `CC1(C)Oc2cc(Cl)ccc2[C@@H]2OCC3(CCN(CCn4ccnc4)CC3)C[C@H]21` [Compound 1, (4'aR,10'bR)-8'-chloro-1-[2-(1H-imidazol-1-yl)ethyl]-5',5'-dimethyl-4'a,10'b-dihydro-2'H,4'H,5'H-spiro[piperidine-4,3'-pyrano[3,2-c][1]benzopyran] diphosphate], the “cytotoxicity in mutant versus wild-type cells” value [1] is reported as “statistically-significantly stronger cytotoxicity in IDH1 R132H mutant cells compared with wild-type cells”, the “antitumor effect in combination with bevacizumab” value [2] is reported as “remarkably enhanced antitumor effect” and the “reduction in the L/Z ratio versus lower dose levels” value ([3]; 480 mg per day (240 mg BID)) is reported as “did not show a greater reduction in the L/Z ratio than those at the 180-360 mg QD dose levels”. For the same compound, the “decrease of mean L/Z ratio” value ([3]; 20 mg QD) was 70%, the “decrease of mean L/Z ratio” value ([3]; 180 mg and 240 mg QD) was 95-97% and the “decrease of mean L/Z ratio” value ([3]; 360 mg QD) was 97.5%. The “decrease of mean L/Z ratio” value ([3]; 40-120 mg QD) was 85-91%, the “decrease of L/Z ratio” value ([3]; Cycle 1 Day 8 (C1D8), 20-360 mg QD, maintained in subsequent cycles) was “approximately 100%” and the “blood L/Z ratio across dose groups” value ([3]; from the 180 mg QD to 360 mg QD dose groups) was “remained at a similar level”. The “decrease of the ratio of lathosterol and zymostenol (L/Z ratio)” value ([3]; serum, starting from 40 mg QD cohort, as of September 2023) was “over 80%”, the “antitumor effect in combination with ipilimumab” value [4] was “remarkably pronounced antitumor effect” and the “cytotoxicity of the combination of Compound 1 and ezetimibe” value ([5]; Compound 1 1 µM + ezetimibe 3.3, 10, or 30 µM) was “potent cytotoxic effects”. For the same compound, the “cytotoxicity, single agent” value ([5]; Compound 1 at 1 µM) was “low cytotoxicity”, the stable disease ([6]; 180 mg QD and 240 mg QD) was “prolonged stable disease (SD) was observed” and the “discontinuation due to objective disease progression (RANO criteria)” value ([6]; 360 mg QD and 480 mg daily (240 mg BID)) was “most patients discontinued administration of Compound 1 within two months”. For the same compound, the “patients with preliminary antitumor activity (monotherapy)” value ([6]; Dose Escalation Part, as of September 2023) was 4 patients, the “tumor reduction (enhancing lesions, RANO criteria; reduction from baseline)” value ([6]; first patient with IDH-mutant WHO Grade III glioma, 20 mg QD) was 22% and the “time remained on study” value ([6]; patient with 22% tumor reduction) was 15 months. The “time remained on study” value ([6]; patient with 100% tumor reduction, as of September 2023) was 13 months, the “time remained on study” value ([6]; patient with 100% tumor reduction, cutoff April 21, 2024) was 20 months and the response ([6]; patient with WHO grade III astrocytoma with IDH mutation, 120 mg, after more than one year of treatment) was “complete response (CR)”. For the same compound, the “tumor reduction (enhancing lesions, RANO criteria; reduction from baseline)” value ([6]; second patient with IDH-mutant WHO Grade III glioma, 120 mg QD) was 100% and the “antitumor effect in combination with ipilimumab” value [7] was “remarkably pronounced antitumor effect”.
